In ChEMBL document CHEMBL3862001, “Tetrahydropyrazolo[4,3-c]pyridine derivatives as potent and peripherally selective cannabinoid-1 (CB1) receptor inverse agonists” (Bioorg Med Chem Lett, 2016):

Key:
[1] = molecular target: Cannabinoid receptor 1 (Homo sapiens, UniProt P21554); assay: Inverse agonist activity at human CB1 receptor transfected in HEK293 cells assessed as increase of forskolin-induced cAMP production incubated for 30 mins followed by d2 labeled cAMP addition measured after 60 mins by HTRF assay; format: functional, cell-based
[2] = Drug uptake in C57BL/6J mouse brain at 20 mg/kg, po measured at 2 hrs; format: ADME, organism-based; conditions: for concentration at 2 h: C57BL/6J, brain, read-out: Drug uptake; for Drug uptake: in vivo, 2 h
[3] = molecular target: Cannabinoid receptor 2 (Homo sapiens, UniProt P34972); assay: Inverse agonist activity at human CB2 receptor transfected in HEK293 cells assessed as increase of forskolin-induced cAMP production incubated for 30 mins followed by d2 labeled cAMP addition measured after 60 mins by HTRF assay; format: functional, cell-based
[4] = Plasma concentration in C57BL/6J mouse at 20 mg/kg, po measured at 2 hrs; format: ADME, organism-based
[5] = Plasma concentration in C57BL/6J mouse at 20 mg/kg, po measured at 4 hrs; format: ADME, organism-based
[6] = Drug uptake in C57BL/6J mouse brain at 20 mg/kg, po measured at 4 hrs; format: ADME, organism-based; conditions: for Drug uptake: in vivo, 4 h
[7] = Ratio of drug level in brain to plasma in C57BL/6J mouse at 20 mg/kg, po measured at 4 hrs; format: ADME, organism-based; conditions: read-out: BPR
[8] = Ratio of drug level in brain to plasma in C57BL/6J mouse at 20 mg/kg, po measured at 2 hrs; format: ADME, organism-based; conditions: read-out: BPR
[9] = Ratio of drug level in brain in C57BL/6J mouse at 20 mg/kg, po measured at 4 hrs to drug level in plasma in C57BL/6J mouse at 20 mg/kg, po measured at 2 hrs; format: ADME, organism-based; conditions: read-out: BPR
[10] = Drug uptake in C57BL/6J mouse brain at 30 mg/kg, po measured at 4 hrs; format: ADME, organism-based; conditions: read-out: Drug uptake
[11] = Plasma concentration in C57BL/6J mouse at 30 mg/kg, po measured at 4 hrs; format: ADME, organism-based

Chain of Cannabinoid receptor 1 (P21554 whole entry): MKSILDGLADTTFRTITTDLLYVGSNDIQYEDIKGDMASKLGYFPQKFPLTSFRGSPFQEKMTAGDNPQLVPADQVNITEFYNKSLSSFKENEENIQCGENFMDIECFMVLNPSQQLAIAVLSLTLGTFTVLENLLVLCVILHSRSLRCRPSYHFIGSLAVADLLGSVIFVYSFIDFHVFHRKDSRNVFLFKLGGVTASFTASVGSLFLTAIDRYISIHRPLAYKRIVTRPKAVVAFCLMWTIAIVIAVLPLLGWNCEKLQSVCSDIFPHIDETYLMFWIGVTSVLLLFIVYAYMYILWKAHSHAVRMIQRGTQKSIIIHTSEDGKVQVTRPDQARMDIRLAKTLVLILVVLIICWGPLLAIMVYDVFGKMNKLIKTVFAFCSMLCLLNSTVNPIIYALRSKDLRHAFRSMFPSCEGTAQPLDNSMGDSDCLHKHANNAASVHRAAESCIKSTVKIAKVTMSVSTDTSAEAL
Chain of Cannabinoid receptor 2 (P34972 whole entry): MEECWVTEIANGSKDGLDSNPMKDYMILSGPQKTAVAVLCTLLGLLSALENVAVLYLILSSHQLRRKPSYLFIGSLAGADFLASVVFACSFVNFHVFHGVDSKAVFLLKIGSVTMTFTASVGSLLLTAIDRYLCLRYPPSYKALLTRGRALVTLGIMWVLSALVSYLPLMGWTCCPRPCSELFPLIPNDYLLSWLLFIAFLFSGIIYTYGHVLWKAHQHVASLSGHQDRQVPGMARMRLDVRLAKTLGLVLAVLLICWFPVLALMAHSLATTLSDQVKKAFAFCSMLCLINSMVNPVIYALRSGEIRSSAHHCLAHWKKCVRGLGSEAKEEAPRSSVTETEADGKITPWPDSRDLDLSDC

In the case of COc1ccc(/C=C2\CN(C(=O)Cn3ccnc3)Cc3c(C(=O)N[C@H](C)c4ccccc4)nn(-c4ccc(Cl)cc4Cl)c32)cc1, the EC50 [1] is reported as 5 nM, the concentration at 2 h [2] is reported as < 5 ng/mL and the EC50 [3] is reported as 370 nM. It also gave a concentration at 2 h [4] of 580 nM.

In the case of C[C@@H](NC(=O)c1nn(-c2ccc(Cl)cc2Cl)c2c1CN(C(=O)[C@@H](O)CO)C/C2=C\c1ccc(Cl)cc1)c1ccccc1, the EC50 [1] is reported as 18 nM, the concentration at 4 h [5] is reported as 2770 nM and the Drug uptake [6] is reported as 0.17 nmol/g. It also gave an EC50 [3] of 2910 nM and a Kp at 4 h [7] of 0.06.

Work on C[C@@H](NC(=O)c1nn(-c2ccc(Cl)c(Cl)c2)c2c1CN(C(=O)Cn1cncn1)C/C2=C\c1ccc(Cl)cc1)c1ccccn1 yielded an EC50 [1] of 6 nM, a concentration at 4 h [5] of 4600 nM and a Drug uptake [6] of 0.35 nmol/g. It also gave an EC50 [3] of 7850 nM and a Kp at 4 h [7] of 0.08.

For COc1ccc(/C=C2\CN(C(=O)CN)Cc3c(C(=O)N[C@H](C)c4ccccc4)nn(-c4ccc(Cl)cc4Cl)c32)cc1, the EC50 [1] was 24 nM, the concentration at 4 h [5] was 1530 nM and the Drug uptake [6] was 0.07 nmol/g. For the same compound, the EC50 [3] was > 10000 nM and the Kp at 4 h [7] was 0.04.

C[C@@H](NC(=O)c1nn(-c2ccc(Cl)cc2Cl)c2c1CN(C(=O)Cn1cnnn1)C/C2=C\c1ccc(F)cc1)c1ccccn1 showed an EC50 [1] of 6 nM, a concentration at 4 h [5] of 2280 nM and a Drug uptake [6] of 0.07 nmol/g. It also gave an EC50 [3] of 8610 nM and a Kp at 4 h [7] of 0.03.

C[C@@H](NC(=O)c1nn(-c2ccc(Cl)cc2Cl)c2c1CN(C(=O)c1nc[nH]n1)C/C2=C\c1ccc(F)cc1)c1ccccc1 gave an EC50 [1] of 15 nM, a Drug uptake [2] of 0.25 nmol/g and a Kp at 2 h [8] of 0.06. For the same compound, the EC50 [3] was 1310 nM and the concentration at 2 h [4] was 4480 nM.

For C[C@@H](NC(=O)c1nn(-c2ccc(Cl)cc2)c2c1CN(C(=O)CNS(C)(=O)=O)C/C2=C\c1ccc(F)cc1)c1ccccn1, the EC50 [1] was 30 nM, the concentration at 4 h [5] was 1720 nM and the Drug uptake [6] was 0.09 nmol/g. For the same compound, the EC50 [3] was > 10000 nM and the Kp at 4 h [7] was 0.05.

For COc1ccc(/C=C2\CN(C(=O)Cn3ccnn3)Cc3c(C(=O)N[C@H](C)c4ccccc4)nn(-c4ccc(Cl)cc4Cl)c32)cc1, the EC50 [1] was 4 nM, the concentration at 2 h [2] was < 5 ng/mL and the EC50 [3] was 1270 nM. The concentration at 2 h [4] was 30 nM.

COc1ccc(/C=C2\CN(C(=O)c3nc[nH]n3)Cc3c(C(=O)N[C@H](C)c4ccccc4)nn(-c4ccc(Cl)cc4Cl)c32)cc1 gave an EC50 [1] of 15 nM, a Drug uptake [2] of 0.05 nmol/g and a Kp at 2 h [8] of 0.03. It also gave an EC50 [3] of 1760 nM and a concentration at 2 h [4] of 1480 nM.

COc1ccc(/C=C2\CN(C(=O)CS(N)(=O)=O)Cc3c(C(=O)N[C@H](C)c4ccccn4)nn(-c4ccc(Cl)cc4Cl)c32)cc1 showed an EC50 [1] of 8 nM, a concentration at 4 h [5] of 2090 nM and a Drug uptake [6] of 0.08 nmol/g. For the same compound, the EC50 [3] was 1450 nM and the Kp at 4 h [7] was 0.04.

COc1ccc(/C=C2\CN(C(=O)CCS(N)(=O)=O)Cc3c(C(=O)N[C@H](C)c4ccccn4)nn(-c4ccc(Cl)cc4Cl)c32)cc1 showed an EC50 [1] of 6 nM, a concentration at 4 h [5] of 1360 nM and a Drug uptake [6] of 0.05 nmol/g. It also gave an EC50 [3] of 650 nM and a Kp at 4 h [7] of 0.04.

With COc1ccc(/C=C2\CN(C(=O)c3cc[nH]n3)Cc3c(C(=O)N[C@H](C)c4ccccc4)nn(-c4ccc(Cl)cc4Cl)c32)cc1 the EC50 [1] was 32 nM, the concentration at 2 h [2] was < 5 ng/mL and the EC50 [3] was 4660 nM. It also gave a concentration at 2 h [4] of 1720 nM.

In the case of C[C@@H](NC(=O)c1nn(-c2ccc(Cl)cc2Cl)c2c1CN(C(=O)Cn1cnnn1)C/C2=C\c1ccc(F)cc1)c1ccccc1, the EC50 [1] is reported as 8 nM, the Drug uptake [6] is reported as 0.43 nmol/g and the EC50 [3] is reported as 3240 nM. The concentration at 2 h [4] was 9190 nM and the Kp [9] was 0.05.

With C[C@@H](NC(=O)c1nn(-c2ccc(Cl)cc2)c2c1CN(C(=O)c1nc[nH]n1)C/C2=C\c1ccc(Cl)cc1)c1ccccc1 the EC50 [1] was 17 nM, the Drug uptake [2] was 0.47 nmol/g and the Kp at 2 h [8] was 0.05. For the same compound, the EC50 [3] was > 10000 nM and the concentration at 2 h [4] was 9780 nM.

For C[C@@H](NC(=O)c1nn(-c2ccc(Cl)c(Cl)c2)c2c1CN(C(=O)Cn1cnnn1)C/C2=C\c1ccc(F)cc1)c1ccccn1, the EC50 [1] was 7 nM, the concentration at 4 h [5] was 2820 nM and the Drug uptake [6] was 0.15 nmol/g. For the same compound, the EC50 [3] was 3660 nM and the Kp at 4 h [7] was 0.05.

Work on C[C@@H](NC(=O)c1nn(-c2ccc(Cl)cc2Cl)c2c1CN(C(=O)CNS(C)(=O)=O)C/C2=C\c1ccc(Cl)cc1)c1ccccn1 yielded an EC50 [1] of 17 nM, a concentration at 4 h [5] of 3320 nM and a Drug uptake [6] of 0.17 nmol/g. For the same compound, the EC50 [3] was > 10000 nM and the Kp at 4 h [7] was 0.05.

Work on C[C@@H](NC(=O)c1nn(-c2ccc(Cl)cc2Cl)c2c1CN(C(=O)[C@@H](O)CO)C/C2=C\c1ccc(Cl)cc1)c1ccccn1 yielded an EC50 [1] of 22 nM, a concentration at 4 h [5] of 2410 nM and a Drug uptake [6] of 0.18 nmol/g. For the same compound, the EC50 [3] was 5550 nM and the Kp at 4 h [7] was 0.08.

C[C@@H](NC(=O)c1nn(-c2ccc(Cl)cc2)c2c1CN(C(=O)c1nc[nH]n1)C/C2=C\c1ccc(F)cc1)c1ccccc1 showed an EC50 [1] of 12 nM, a Drug uptake [2] of 0.09 nmol/g and a Kp at 2 h [8] of 0.07. For the same compound, the EC50 [3] was > 10000 nM and the concentration at 2 h [4] was 1320 nM.

Work on COc1ccc(/C=C2\CN(C(=O)Cn3cnnn3)Cc3c(C(=O)N[C@H](C)c4ccccc4)nn(-c4ccc(Cl)cc4Cl)c32)cc1 yielded an EC50 [1] of 6 nM, a Drug uptake [2] of 0.07 nmol/g and a Kp at 2 h [8] of 0.02. For the same compound, the EC50 [3] was 1130 nM and the concentration at 2 h [4] was 2960 nM.

For C[C@@H](NC(=O)c1nn(-c2ccc(Cl)cc2Cl)c2c1CN(C(=O)CC(N)=O)C/C2=C\c1ccc(F)cc1)c1ccccn1, the EC50 [1] was 9 nM, the concentration at 4 h [10] was < 5 ng/mL and the EC50 [3] was > 10000 nM. The concentration at 4 h [11] was 2290 nM.

For COc1ccc(/C=C2\CN(C(=O)CC(=O)O)Cc3c(C(=O)N[C@H](C)c4ccccn4)nn(-c4ccc(Cl)cc4Cl)c32)cc1, the EC50 [1] was 11 nM, the concentration at 4 h [5] was 90 nM and the concentration at 4 h ([6]; C57BL/6J, brain, read-out: Drug uptake) was < 5 ng/mL. It also gave an EC50 [3] of 1940 nM.

In the case of C[C@@H](NC(=O)c1nn(-c2ccc(Cl)cc2Cl)c2c1CN(C(=O)CCC(N)=O)C/C2=C\c1ccc(F)cc1)c1ccccn1, the EC50 [1] is reported as 20 nM, the concentration at 4 h [5] is reported as 4250 nM and the Drug uptake [6] is reported as 0.12 nmol/g. For the same compound, the EC50 [3] was > 10000 nM and the Kp at 4 h [7] was 0.03.

For C[C@@H](NC(=O)c1nn(-c2ccc(Cl)cc2)c2c1CN(C(=O)c1nc[nH]n1)C/C2=C\c1ccc(Cl)cc1)c1ccccn1, the EC50 [1] was 28 nM, the Drug uptake [2] was 0.1 nmol/g and the Kp at 2 h [8] was 0.04. For the same compound, the EC50 [3] was > 10000 nM and the concentration at 2 h [4] was 2380 nM.
